Where two headings read alike, the source gives them in different places.
Assays:
Type in all cases: cell-based, Escherichia coli
[1] = test system: EKO-35-Pore; experiment: MIC susceptibility profiling, porinated strain; details: for Fold changes of MICs: EKO-35-Pore compared to EKO-35-Pore (reference); for MIC: Escherichia coli, technical duplicate
Method in brief: (§1)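 E. coli strains carrying a genomically integrated constitutive fhuA ΔC/Δ4L pore were grown 18 h in LB at 37 °C, then diluted 1/2000 in MHB II from OD600 ~1.0. Compounds were tested in duplicate, 2-fold serial titration, for 18 h at 37 °C with shaking. MIC came from OD600 with the pre-incubation background subtracted.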

[2] = test system: wild-type E. coli K-12 str. BW25113; experiment: microbe, parasite or virus in culture; details: Escherichia coli, BW25113, technical duplicate
Method in brief: (§2)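 LB o/n 37 °C → PBS pH 7.4, OD600 ~1.0 → 1/2000 in MHB II; 2-fold cmpd series, duplicate, DMSO ctrl; 18 h 37 °C, 900 rpm; OD600 post minus pre.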

[3] = test system: E. coli EKO-35; experiment: microbe, parasite or virus in culture; details: for Fold change of MICs: EKO-35 compared to EKO-35 (reference); for MIC: Escherichia coli, EKO35, technical duplicate
Method in brief: as §2

[4] = test system: E. coli ΔtolC; experiment: microbe, parasite or virus in culture; details: for MIC: Escherichia coli, 18 h, read-out: Minimum Inhibitory Concentration, ΔtolC; for Minimum inhibitory concentration (MIC), ΔtolC: Table 10, without pore, technical duplicate
Method in brief: as §2

[5] = test system: ΔtolC-Pore; experiment: microbe, parasite or virus in culture; details: for MIC: Escherichia coli, 18 h, read-out: Minimum inhibitory concentration, ΔtolC-Pore; for Minimum inhibitory concentration (MIC), Pore ΔtolC: Table 10, with pore, technical duplicate
Method in brief: as §1

[6] = test system: wild-type (WT) K-12-Pore; experiment: microbe, parasite or virus in culture; details: Escherichia coli, technical duplicate
Method in brief: as §1

[7] = test system: EKO-35 araC::mexCD (MexCD from P. aeruginosa); experiment: MIC susceptibility profiling, efflux platform; details: for Fold change of MICs: EKO-35 araC::mexCD compared to EKO-35; for MIC: Table 13B, non-porinated, technical duplicate, read-out: Minimum Inhibitory Concentration, EKO-35 araC::mexCD
Method in brief: as §2

[8] = test system: EKO-35 araC::acrB; experiment: MIC susceptibility profiling, efflux platform; details: for Fold change of MICs: EKO-35 araC::acrB compared to EKO-35; for MIC: Escherichia coli, Table 13A, non-porinated, technical duplicate, read-out: Minimum Inhibitory Concentration, EKO-35 araC::acrB
Method in brief: as §2

[9] = test system: EKO-35 araC::mdtBC; experiment: MIC susceptibility profiling, efflux platform; details: for Fold change of MICs: EKO-35 araC::mdtBC compared to EKO-35; for MIC: Escherichia coli, Table 13B, non-porinated, technical duplicate, read-out: Minimum Inhibitory Concentration, EKO-35 araC::mdtBC
Method in brief: as §2

[10] = test system: EKO-35 araC::acrEF; experiment: MIC susceptibility profiling, efflux platform; details: for Fold change of MICs: EKO-35 araC::acrEF compared to EKO-35; for MIC: Escherichia coli, Table 13A, non-porinated, technical duplicate, read-out: Minimum Inhibitory Concentration, EKO-35 araC::acrEF
Method in brief: as §2

[11] = test system: EKO-35 araC::mdtEF; experiment: MIC susceptibility profiling, efflux platform; details: for Fold change of MICs: EKO-35 araC::mdtEF compared to EKO-35; for MIC: Escherichia coli, Table 13A, non-porinated, technical duplicate, read-out: Minimum Inhibitory Concentration, EKO-35 araC::mdtEF
Method in brief: as §2

[12] = test system: EKO-35 araC::acrD; experiment: MIC susceptibility profiling, efflux platform; details: for Fold change of MICs: EKO-35 araC::acrD compared to EKO-35; for MIC: Escherichia coli, Table 13A, non-porinated, technical duplicate, read-out: Minimum Inhibitory Concentration, EKO-35 araC::acrD
Method in brief: as §2

[13] = test system: EKO-35 araC::acrBD408A; experiment: MIC susceptibility profiling, efflux platform; details: for Fold change of MICs: EKO-35 araC::acrBD408A compared to EKO-35; for MIC: Escherichia coli, Table 13B, non-porinated, technical duplicate, read-out: Minimum Inhibitory Concentration, EKO-35 araC::acrBD408A
Method in brief: as §2

[14] = test system: EKO-35 araC::macAB; experiment: MIC susceptibility profiling, efflux platform; details: for Fold change of MICs: EKO-35 araC::macAB compared to EKO-35; for MIC: Escherichia coli, Table 13B, non-porinated, technical duplicate, read-out: Minimum Inhibitory Concentration, EKO-35 araC::macAB
Method in brief: as §2

[15] = test system: EKO-35 araC::emrAB; experiment: MIC susceptibility profiling, efflux platform; details: for Fold change of MICs: EKO-35 araC::emrAB compared to EKO-35; for MIC: Escherichia coli, Table 13B, non-porinated, technical duplicate, read-out: Minimum Inhibitory Concentration, EKO-35 araC::emrAB
Method in brief: as §2

[16] = test system: EKO-35 araC::emrKY; experiment: MIC susceptibility profiling, efflux platform; details: for Fold change of MICs: EKO-35 araC::emrKY compared to EKO-35; for MIC: Escherichia coli, Table 13B, non-porinated, technical duplicate, read-out: Minimum Inhibitory Concentration, EKO-35 araC::emrKY
Method in brief: as §2

[17] = test system: EKO-35 araC::mdtEF Pore; experiment: MIC susceptibility profiling, porinated efflux platform; details: for Fold changes of MICs: EKO-35 araC::mdtEF Pore compared to EKO-35-Pore; for MIC: Escherichia coli, Table 14A, porinated, technical duplicate, read-out: Minimum inhibitory concentration, EKO-35 araC::mdtEF Pore
Method in brief: as §1

[18] = test system: EKO-35 araC::mdtBC Pore; experiment: as above; details: for Fold changes of MICs: EKO-35 araC::mdtBC Pore compared to EKO-35-Pore; for MIC: Escherichia coli, EKO-35 araC::mdtBC Pore, technical duplicate, read-out: Minimum inhibitory concentration
Method in brief: as §1

[19] = test system: EKO-35 araC::acrB Pore; experiment: as above; details: for Fold changes of MICs: EKO-35 araC::acr-B Pore compared to EKO-35-Pore; for MIC: Escherichia coli, Table 14A, porinated, technical duplicate, read-out: Minimum inhibitory concentration, EKO-35 araC::acrB Pore
Method in brief: as §1

[20] = Table 10, with pore, read-out: Minimum inhibitory concentration (MIC), Pore EKO-35
[21] = Table 14A, porinated, read-out: Minimum inhibitory concentration, EKO-35-Pore
[22] = Table 10, without pore, read-out: Minimum inhibitory concentration (MIC), K-12
[23] = Table 13A, non-porinated, read-out: Minimum Inhibitory Concentration, K-12
[24] = Table 10, without pore, read-out: Minimum inhibitory concentration (MIC), EKO-35
[25] = Table 13A, non-porinated, read-out: Minimum Inhibitory Concentration, EKO-35
[26] = Table 10, with pore, read-out: Minimum inhibitory concentration (MIC), Pore K-12
[27] = Table 14A, porinated, read-out: Minimum inhibitory concentration, K-12 (WT)-Pore

CC[n+]1c(-c2ccccc2)c2cc(N)ccc2c2ccc(N)cc21 [ethidium bromide]
3.125 µg/mL: Minimum inhibitory concentration (MIC), ΔtolC [4] | Minimum inhibitory concentration (MIC), Pore ΔtolC [5]
12.5 µg/mL: MIC [8]
2 fold: Fold change of MICs [12] | Fold change of MICs [13]
64 fold: Fold change of MICs [8] | Fold changes of MICs [19]
0.098 µg/mL: MIC [1, 20] | MIC [1, 21] | MIC [18]
100 µg/mL: MIC [2, 22] | MIC [2, 23] | MIC [6, 26] | MIC [6, 27]
0.195 µg/mL: MIC [3, 24] | MIC [3, 25] | MIC [9] | MIC [14] | MIC [15] | MIC [16]
6.25 µg/mL: MIC [19]
0.391 µg/mL: MIC [12] | MIC [13]
8 fold: Fold change of MICs [7] | Fold change of MICs [11] | Fold changes of MICs [17]
1.56 µg/mL: MIC [7] | MIC [11]
0.781 µg/mL: MIC [17]
16 fold: Fold change of MICs [10]
3.12 µg/mL: MIC [4] | MIC [5] | MIC [10]
1 fold: Fold changes of MICs [1] | Fold change of MICs [3] | Fold change of MICs [9] | Fold change of MICs [14] | Fold change of MICs [15] | Fold change of MICs [16] | Fold changes of MICs [18]

C[C@@H]1O[C@@H]1P(=O)(O)O [fosfomycin]
1 fold: Fold changes of MICs [1] | Fold change of MICs [3] | Fold change of MICs [7] | Fold change of MICs [8] | Fold change of MICs [9] | Fold change of MICs [12] | Fold change of MICs [13] | Fold change of MICs [14] | Fold change of MICs [15] | Fold change of MICs [16] | Fold changes of MICs [17] | Fold changes of MICs [18] | Fold changes of MICs [19]
3.12 µg/mL: MIC [3, 24] | MIC [3, 25] | MIC [5] | MIC [6, 26] | MIC [6, 27]
0.781 µg/mL: MIC [1, 20] | MIC [1, 21] | MIC [17] | MIC [18] | MIC [19]
1.56 µg/mL: MIC [7] | MIC [8] | MIC [9] | MIC [10] | MIC [11] | MIC [12] | MIC [16]
3.125 µg/mL: Minimum inhibitory concentration (MIC), Pore ΔtolC [5]
6.25 µg/mL: MIC [2, 22] | MIC [2, 23] | MIC [4] | Minimum inhibitory concentration (MIC), ΔtolC [4]

CC(=O)O[C@H]1C[C@@]2(C)[C@@H](C[C@@H](O)[C@H]3[C@@]4(C)CC[C@@H](O)[C@@H](C)[C@@H]4CC[C@@]32C)/C1=C(\CCC=C(C)C)C(=O)O [fusidic acid]
2 fold: Fold change of MICs [9] | Fold change of MICs [15]
12.5 µg/mL: MIC [7]
128 fold: Fold change of MICs [8]
4 fold: Fold change of MICs [7]
0.391 µg/mL: MIC [1, 20] | MIC [1, 21] | MIC [5] | Minimum inhibitory concentration (MIC), Pore ΔtolC [5] | MIC [18]
400 µg/mL: MIC [2, 22] | MIC [2, 23] | MIC [8]
6.25 µg/mL: MIC [9] | MIC [15]
1 fold: Fold changes of MICs [1] | Fold change of MICs [3] | Fold change of MICs [13] | Fold change of MICs [14] | Fold change of MICs [16] | Fold changes of MICs [18]
3.125 µg/mL: Minimum inhibitory concentration (MIC), ΔtolC [4]
16 fold: Fold change of MICs [10] | Fold change of MICs [11]
32 fold: Fold change of MICs [12]
3.12 µg/mL: MIC [3, 24] | MIC [3, 25] | MIC [4] | MIC [13] | MIC [14] | MIC [16] | MIC [17]
50 µg/mL: MIC [10] | MIC [11]
8 fold: Fold changes of MICs [17]
256 fold: Fold changes of MICs [19]
100 µg/mL: MIC [6, 26] | MIC [6, 27]

NC[C@H]1O[C@H](O[C@H]2[C@H](O)[C@@H](O[C@H]3O[C@H](CO)[C@@H](O)[C@H](N)[C@H]3O)[C@H](N)C[C@@H]2N)[C@H](O)[C@@H](O)[C@@H]1O [kanamycin]
1.563 µg/mL: Minimum inhibitory concentration (MIC), ΔtolC [4] | Minimum inhibitory concentration (MIC), Pore ΔtolC [5]
1.56 µg/mL: MIC [1, 20] | MIC [1, 21] | MIC [4] | MIC [5] | MIC [7] | MIC [13] | MIC [16] | MIC [17] | MIC [18]
2 fold: Fold changes of MICs [19]
1 fold: Fold changes of MICs [1] | Fold change of MICs [3] | Fold change of MICs [7] | Fold change of MICs [8] | Fold change of MICs [9] | Fold change of MICs [10] | Fold change of MICs [11] | Fold change of MICs [12] | Fold change of MICs [13] | Fold change of MICs [14] | Fold change of MICs [15] | Fold change of MICs [16] | Fold changes of MICs [17] | Fold changes of MICs [18]
3.12 µg/mL: MIC [2, 22] | MIC [2, 23] | MIC [3, 24] | MIC [3, 25] | MIC [6, 26] | MIC [6, 27]
